In PubChem BioAssay AID328 (DTP/NCI, 2004) one finds T/C data, which are given here for 19 molecules.

For this test, the system named is BDF1 mice, P388 leukemia ip, median survival T/C. Briefly: NCI In Vivo Anticancer Drug Screen. Data for tumor model P388 Leukemia (intraperitoneal) in B6D2F1 (BDF1) mice. To be noted: endpoint: median survival time, higher = longer survival. The method, then:
The antitumor activity of compounds was measured in mice bearing transplantable tumors. Survival or tumor size were measured and the results are expressed as the measurement made in the treated group (T) divided by the measurement made in the vehicle treated control group (C). The tumor model used in this assay is P388 Leukemia (intraperitoneal) in B6D2F1 (BDF1) mice

The mark [1] stands for this setting: dose: 2.66 mg/kg/injection, schedule: Q01DX009 (ip), vehicle: saline.
Where [2] appears, read: dose: 4.0 mg/kg/injection, schedule: Q01DX009 (ip), vehicle: saline.
The mark [3] stands for this setting: dose: 6.0 mg/kg/injection, schedule: Q01DX009 (ip), vehicle: saline.
Where [4] appears, read: dose: 100.0 mg/kg/injection, schedule: Q04DX003 (ip), vehicle: saline with Tween-80.
[5] abbreviates: dose: 200.0 mg/kg/injection, schedule: Q04DX003 (ip), vehicle: saline with Tween-80.
Setting [6] is: dose: 100.0 mg/kg/injection, schedule: Q01DX001 (ip), vehicle: saline with Tween-80.
The mark [7] stands for this setting: dose: 200.0 mg/kg/injection, schedule: Q01DX001 (ip), vehicle: saline with Tween-80.
The mark [8] stands for this setting: dose: 100.0 mg/kg/injection, schedule: Q01DX009 (ip), vehicle: saline with Tween-80.
Where [9] appears, read: dose: 200.0 mg/kg/injection, schedule: Q01DX009 (ip), vehicle: saline with Tween-80.

Values joined by “and” are separate entries in the source; they are usually repeats but may differ in a detail not shown here. Equal entries are not always repeated. Inconclusive results and toxic doses are left out.

Take `Cc1c(F)cc(I)cc1[N+](=O)[O-]`: the T/C was 113 % of control (dose: 100.0 mg/kg/injection, schedule: Q01DX001 (ip), vehicle: Klucel (hydroxypropylcellulose) (HPC)); 104 % of control (dose: 200.0 mg/kg/injection, schedule: Q01DX001 (ip), vehicle: Klucel (hydroxypropylcellulose) (HPC)); 118 % of control (dose: 400.0 mg/kg/injection, schedule: Q01DX001 (ip), vehicle: Klucel (hydroxypropylcellulose) (HPC)).

`C1CCC2C[N-]CCC2C1.C1CCC2C[N-]CCC2C1.C1CCC2C[N-]CCC2C1.C1CCC2C[N-]CCC2C1.[Cl][Rh][Cl]` (stereo not drawn): the T/C by setting is: (dose: 0.13 mg/kg/injection, schedule: Q01DX009 (ip), vehicle: saline) 95 % of control; (dose: 0.25 mg/kg/injection, schedule: Q01DX009 (ip), vehicle: saline) 104 % of control; (dose: 0.39 mg/kg/injection, schedule: Q01DX009 (ip), vehicle: saline with Tween-80) 115 % of control; (dose: 0.5 mg/kg/injection, schedule: Q01DX009 (ip), vehicle: saline) 119 % of control; (dose: 0.78 mg/kg/injection, schedule: Q01DX009 (ip), vehicle: saline with Tween-80) 115 % of control; (dose: 0.88 mg/kg/injection, schedule: Q01DX009 (ip), vehicle: saline) 153 % of control. Also, the T/C is, setting by setting: (dose: 1.33 mg/kg/injection, schedule: Q01DX009 (ip), vehicle: saline) 174 % of control; (dose: 1.56 mg/kg/injection, schedule: Q01DX009 (ip), vehicle: saline with Tween-80) 150 % of control; (dose: 2.0 mg/kg/injection, schedule: Q01DX009 (ip), vehicle: saline) 153 % of control; under setting [1], 159 % of control; (dose: 3.12 mg/kg/injection, schedule: Q01DX009 (ip), vehicle: saline with Tween-80) 185 % of control; under setting [2], 168 % of control and 170 % of control. Besides, the T/C under setting [3] is 100 % of control.

As for `CCC(=O)c1cc([N+](=O)[O-])ccc1N`, the T/C (dose: 50.0 mg/kg/injection, schedule: Q04DX003 (ip), vehicle: saline with Tween-80) was 90 % of control; the T/C under setting [4] was 95 % of control; the T/C under setting [5] is 109 % of control.

On to `O=C1Nc2ccccc2C12Nc1cccnc1N2` (stereo not drawn), for which the T/C was 91 % of control (dose: 50.0 mg/kg/injection, schedule: Q01DX001 (ip), vehicle: saline with Tween-80); 87 % of control under setting [6]; 91 % of control under setting [7].

Take `CNc1cc(C(C)C)ccc1C`: the T/C reads like this: (dose: 32.5 mg/kg/injection, schedule: Q01DX009 (sc), vehicle: olive oil, sesame oil, peanut oil) 104 % of control; (dose: 65.0 mg/kg/injection, schedule: Q01DX009 (sc), vehicle: olive oil, sesame oil, peanut oil) 104 % of control; (dose: 100.0 mg/kg/injection, schedule: Q04DX003 (sc), vehicle: olive oil, sesame oil, peanut oil) 104 % of control; (dose: 130.0 mg/kg/injection, schedule: Q01DX009 (sc), vehicle: olive oil, sesame oil, peanut oil) 100 % of control; (dose: 200.0 mg/kg/injection, schedule: Q04DX003 (sc), vehicle: olive oil, sesame oil, peanut oil) 109 % of control; (dose: 400.0 mg/kg/injection, schedule: Q04DX003 (sc), vehicle: olive oil, sesame oil, peanut oil) 118 % of control.

On to `CC(C)N(CC#N)C(C)C`, for which the T/C (dose: 0.25 mg/kg/injection, schedule: Q04DX003 (ip), vehicle: saline with Tween-80) is 91 % of control and the T/C (dose: 0.5 mg/kg/injection, schedule: Q04DX003 (ip), vehicle: saline with Tween-80) was 101 % of control.

Regarding `CCSc1ncnc2c1ncn2C1OC(CO)C(O)C1O` (stereo not drawn), the T/C runs as follows: (dose: 50.0 mg/kg/injection, schedule: Q01DX009 (ip), vehicle: saline with Tween-80) 95 % of control; under setting [8], 117 % of control; under setting [9], 91 % of control.

For the molecule `O=S1(=O)C=CCC2C3CCC(C3)C21` (stereo not drawn), the T/C runs as follows: under setting [6], 100 % of control; under setting [7], 106 % of control.

On to `O=C1CCCN1C1=CC2=C(CCc3ccccc32)S(=O)(=O)O1`, for which the T/C is 90 % of control (dose: 100.0 mg/kg/injection, schedule: Q04DX003 (ip), vehicle: saline); 100 % of control (dose: 200.0 mg/kg/injection, schedule: Q04DX003 (ip), vehicle: saline); 100 % of control (dose: 400.0 mg/kg/injection, schedule: Q04DX003 (ip), vehicle: saline).

With `COc1ccc2nc3cc(Cl)ccc3c(NCCO)c2c1`, the T/C by setting is: (dose: 37.5 mg/kg/injection, schedule: Q01DX010 (ip), vehicle: saline) 100 % of control; (dose: 75.0 mg/kg/injection, schedule: Q01DX010 (ip), vehicle: saline) 100 % of control; (dose: 150.0 mg/kg/injection, schedule: Q01DX010 (ip), vehicle: saline) 100 % of control.

Take `C[CH2][Pb]([CH2]C)([CH2]C)[O]C(=O)COC`: the T/C by setting is: (dose: 0.78 mg/kg/injection, schedule: Q01DX009 (ip), vehicle: Klucel (hydroxypropylcellulose) (HPC)) 115 % of control; (dose: 1.56 mg/kg/injection, schedule: Q01DX009 (ip), vehicle: Klucel (hydroxypropylcellulose) (HPC)) 98 % of control; (dose: 3.13 mg/kg/injection, schedule: Q01DX009 (ip), vehicle: Klucel (hydroxypropylcellulose) (HPC)) 121 % of control.

On to `Cc1cc(C)nc(NNc2nc(C)cc(C)n2)n1`, for which the T/C is, setting by setting: under setting [8], 92 % of control; under setting [4], 91 % of control; under setting [9], 103 % of control; under setting [5], 95 % of control; (dose: 400.0 mg/kg/injection, schedule: Q01DX009 (ip), vehicle: saline with Tween-80) 89 % of control; (dose: 400.0 mg/kg/injection, schedule: Q04DX003 (ip), vehicle: saline with Tween-80) 95 % of control.

For `CN=S(=O)(OC/C=C/COS(=O)(=NC)c1ccc(C)cc1)c1ccc(C)cc1` (stereo not drawn), the T/C is 95 % of control (dose: 12.5 mg/kg/injection, schedule: Q01DX009 (ip), vehicle: saline with Tween-80); 110 % of control (dose: 25.0 mg/kg/injection, schedule: Q01DX009 (ip), vehicle: saline with Tween-80); 121 % of control (dose: 50.0 mg/kg/injection, schedule: Q01DX009 (ip), vehicle: saline + alcohol); 100 % of control under setting [8].

`N#CC1(C#N)C(c2ccccc2)C1(C#N)C#N`: the T/C (dose: 2.0 mg/kg/injection, schedule: Q01DX009 (ip), vehicle: saline with Tween-80) is 120 % of control; the T/C (dose: 2.66 mg/kg/injection, schedule: Q01DX009 (ip), vehicle: saline with Tween-80) is 122 % of control; the T/C under setting [1] is 109 % of control and 120 % of control; the T/C under setting [2] is 108 % of control; the T/C under setting [3] was 118 % of control; the T/C (dose: 6.25 mg/kg/injection, schedule: Q01DX009 (ip), vehicle: saline with Tween-80) was 115 % of control. Also, the T/C (dose: 8.0 mg/kg/injection, schedule: Q01DX009 (ip), vehicle: saline with Tween-80) is 120 % of control.

With `CC(=O)NC(=O)NC(C)=O`, the T/C is, setting by setting: (dose: 100.0 mg/kg/injection, schedule: Q01DX001 (ip), vehicle: saline) 91 % of control; (dose: 200.0 mg/kg/injection, schedule: Q01DX001 (ip), vehicle: saline) 91 % of control; (dose: 400.0 mg/kg/injection, schedule: Q01DX001 (ip), vehicle: saline) 91 % of control.

In the case of `CC1(C)NC(=O)NC1=O`, the T/C reads like this: under setting [6], 100 % of control; under setting [7], 100 % of control; (dose: 400.0 mg/kg/injection, schedule: Q01DX001 (ip), vehicle: saline with Tween-80) 100 % of control.

Turning to `OC(CNc1ccc(CSc2ccccc2)cc1)c1ccccc1` (stereo not drawn), the T/C runs as follows: (dose: 50.0 mg/kg/injection, schedule: Q01DX009 (ip), vehicle: other) 120 % of control; (dose: 100.0 mg/kg/injection, schedule: Q01DX009 (ip), vehicle: other) 123 % of control.

On to `CC1CN=C(c2ccc(NC(=O)c3ccc(C(=O)Nc4ccc(C5=NCC(C)N5)cc4)c(N)c3)cc2)N1` (stereo not drawn), for which the T/C was 150 % of control (dose: 6.7 mg/kg/injection, schedule: Q04DX003 (ip), vehicle: saline with Tween-80); 163 % of control (dose: 10.0 mg/kg/injection, schedule: Q04DX003 (ip), vehicle: saline with Tween-80); 172 % of control and 177 % of control (dose: 15.0 mg/kg/injection, schedule: Q04DX003 (ip), vehicle: saline with Tween-80).

Consider `O=C1C=CC(=O)c2c(Cl)ccc(O)c21`, for which the T/C (dose: 0.63 mg/kg/injection, schedule: Q01DX009 (ip), vehicle: Klucel (hydroxypropylcellulose) (HPC)) was 116 % of control.
